Read-outs that look alike come from different tables or passages of the source.

Test [1] relates to SK-BR-3 tumor cells (human breast cancer cells). Description: In vitro inhibition of compound of formula (D) on tumor cell proliferation (CTG), SK-BR-3. The format is cell-based. The settings on record: read-out: IC50 of in vitro inhibition on the proliferation of SK-BR-3 cells. Here is the method:
(§1) The purpose of this test is to test the in vitro inhibition effect of the drug compound of formula (D) of the present invention on the proliferation of U87MG cells (Chinese Academy of Sciences cell bank, Catalog #TCHu138) and SK-BR-3 tumor cells (human breast cancer cells, ATCC, article number HTB-30). The cells were treated with different concentrations of the compound in vitro. After 6 days of cultivation, the cell proliferation was determined by CTG reagent (CellTiter-Glo® Luminescent Cell Viability Assay, Promega, article number: G7573), and the in vitro activity of the compound was evaluated according to the IC50 value.
The test method for in vitro proliferation inhibition test of the present compounds on tumor cells is described below by taking in vitro proliferation inhibition test method onU87MG cells as an example. This method is also applicable to, but not limited to, the in vitro proliferation inhibition tests on other tumor cells. • 1. Cell cultivation: U87MG cells and SK-BR-3 cells were cultured in EMEM medium containing 10% FBS (GE, article number SH30024.01) and McCoy's 5A medium containing 10% FBS (Gibco, article number 16600-108), respectively. • 2. Cell preparation: U87MG cells and SK-BR-3 cells in logarithmic growth phase were washed with PBS (phosphate buffer, Shanghai Basal Media Technologies Co., Ltd.) once, and then added with 2-3 ml of trypsin (0.25% Trypsin-EDTA (1×), Gibico, Life Technologies) to digest for 2-3 min. 10-15 ml of cell culture medium was added after the cells were completely digested. The digested cells were eluted, and centrifuged at 1000 rpm for 5 min. The supernatant was discarded, and 10-20 ml of cell culture medium was added to resuspend the cells to obtain a single-cell suspension. • 3. Cell plating: the U87MG and SK-BR-3 single-cell suspensions were mixed well, and the cell densities were adjusted to 2.75×10^3 cells/ml and 8.25×10^3 cells/ml with the cell culture medium respectively. The density-adjusted cell suspension was mixed well, and added to a 96-well cell culture plate at 180 μl/well. 200 μl of culture medium was added to the peripheral wells of the 96-well plate. The plate was incubated in an incubator for 24 hours (37° C., 5% CO2). • 4. Compound formulation: the compound was dissolved with DMSO (dimethylsulfoxide, Shanghai Titan Technology Co., Ltd.) to obtain a stock solution with an initial concentration of 10 mM.
The initial concentration of the small molecule compound was 500 nM, and the formulating method is as follows.
30 μl of different test samples were respectively added into the first column of the 96-well U-shaped bottom formulating plate with a sample concentration of 100 µM. 20 µl of DMSO was added to each well from the second column to the 11th column. […]

The subject of a further test is U87MG cells. Kind of test: In vitro inhibition of compound of formula (D) on tumor cell proliferation (CTG), U87MG. The format is cell-based. The settings on record: Homo sapiens, U-87 MG, 144 h, read-out: IC50 of in vitro inhibition on the proliferation of U87 cells. On the procedure: as §1
The test method for in vitro proliferation inhibition test of the present compounds on tumor cells is described below by taking in vitro proliferation inhibition test method onU87MG cells as an example. This method is also applicable to, but not limited to, the in vitro proliferation inhibition tests on other tumor cells. • 1. Cell cultivation: U87MG cells and SK-BR-3 cells were cultured in EMEM medium containing 10% FBS (GE, article number SH30024.01) and McCoy's 5A medium containing 10% FBS (Gibco, article number 16600-108), respectively. • 2. […]

Test [2] has as its system trastuzumab (Herceptin) resistant human breast cancer cell strain JIMT-1 transplanted tumor. Description: Efficacy evaluation in JIMT-1 tumor-bearing mice. The class given is in vivo, Nunu nude mice. The following applies: 10 mg/kg, intraperitoneal injection 2 times, Day 34.
Text: Formulation method: the drugs were all diluted and formulated with PBS. • 3. Test animals • Nunu nude mice, purchased from Beijing Vital River Laboratory Animal Technology Co., Ltd.
JIMT-1 cells (Nanjing Cobioer Biosciences Co., Ltd.) (5×10^6 cells/mouse, having 50% matrigel) were inoculated subcutaneously in the right rib of mouse. After the tumor grew for 8 days and reached 203.09±11.94 mm^3, the animals were randomly grouped into 6 groups with 8 animals per group (d1).
The drugs were administered by intraperitoneal injection for a total of 2 times. The tumor volume and body weight were measured twice a week, and the data were recorded.
Excel 2003 statistical software was used for data statistics: mean value was calculated as avg; SD value was calculated as STDEV; SEM value was calculated as STDEV/SQRT; P value between different groups was calculated as TTEST.
[formula] [formula] [formula] • wherein V0 and VT represent the tumor volume at the beginning of the test and at the end of the test, respectively. CRTV and TRTV represent the relative tumor volume of the blank control group (Vehicle, PBS) and the test group at the end of the test, respectively.
Where [3] appears, read: 144 h, SK-BR-3, 6 days of cultivation, CTG reagent.

With `CC[C@@]1(O)C(=O)OCc2c1cc1n(c2=O)Cc2c-1nc1cc(F)c(C)c3c1c2[C@@H](NC(=O)C1(O)CC1)CC3` [Compound 1, N-((1S,9S)-9-Ethyl-5-fluoro-9-hydroxy-4-methyl-10,13-dioxo-2,3,9,10,13,15-hexahydro-1H,12H-benzo[de]pyrano[3′,4′:6,7]indolizino[1,2-b]quinolin-1-yl)-1-hydroxycyclopropane-1-carboxamide], the IC50 in test [1] (SK-BR-3, 144 h) is 0.12 nM; in the test with U87MG cells, 0.23 nM. Turning to `CC[C@@]1(O)C(=O)OCc2c1cc1n(c2=O)Cc2c-1nc1cc(F)c(C)c3c1c2[C@@H](NC(=O)C1(O)CCCC1)CC3` [Compound 4, N-((1S,9S)-9-Ethyl-5-fluoro-9-hydroxy-4-methyl-10,13-dioxo-2,3,9,10,13,15-hexahydro-1H,12H-benzo[de]pyrano[3′,4′:6,7]indolizino[1,2-b]quinolin-1-yl)-1-hydroxycyclopentane-1-carboxamide], in test [1] (SK-BR-3, 144 h), the IC50 was 1.9 nM.

With `CC[C@@]1(O)C(=O)OCc2c1cc1n(c2=O)Cc2c-1nc1cc(F)c(C)c3c1c2[C@@H](NC(=O)C1(CO)CC1)CC3` [Compound 5, N-((1S,9S)-9-Ethyl-5-fluoro-9-hydroxy-4-methyl-10,13-dioxo-2,3,9,10,13,15-hexahydro-1H,12H-benzo[de]pyrano[3′,4′:6,7]indolizino[1,2-b]quinolin-1-yl)-1-(hydroxymethyl) cyclopropane-1-carboxamide], the IC50 with U87MG cells is 4.81 nM. For `CC[C@@]1(O)C(=O)OCc2c1cc1n(c2=O)Cc2c-1nc1cc(F)c(C)c3c1c2[C@@H](NC(=O)C1(CO)CCC1)CC3` [Compound 6, N-((1S,9S)-9-Ethyl-5-fluoro-9-hydroxy-4-methyl-10,13-dioxo-2,3,9,10,13,15-hexahydro-1H,12H-benzo[de]pyrano[3′,4′:6,7]indolizino[1,2-b]quinolin-1-yl)-1-(hydroxymethyl) cyclobutane-1-carboxamide], the IC50 in test [1] (setting [3]) is 1 nM. On the same count and under the same terms, in the case of `CC[C@@]1(O)C(=O)OCc2c1cc1n(c2=O)Cc2c-1nc1cc(F)c(C)c3c1c2[C@@H](NC(=O)C1(O)CCC1)CC3` [Compound 7, N-((1S,9S)-9-Ethyl-5-fluoro-9-hydroxy-4-methyl-10,13-dioxo-2,3,9,10,13,15-hexahydro-1H,12H-benzo[de]pyrano[3′,4′:6,7]indolizino[1,2-b]quinolin-1-yl)-1-hydroxycyclobutane-1-carboxamide] it was 1 nM.

Consider T-DM1, for which the tumor inhibition rate entry in test [2] is “no inhibition effect on tumor”.

These data come from patent publication US20260201062A1, “LIGAND-DRUG CONJUGATE OF EXATECAN ANALOGUE, PREPARATION METHOD THEREFOR AND APPLICATION THEREOF” (JIANGSU HENGRUI MEDICINE CO., LTD., priority 2018, published 2026).
